Results taken from patent US12421240B2, “Hydropyrazino[1,2-d][1,4]diazepine compounds for the treatment of autoimmune disease” (Hoffmann-La Roche Inc., priority 2019, dated 2025).

molecular target: T1, human TLR9 (Homo sapiens, UniProt Q9NR96); assay: HEK293-Blue-hTLR-9 cells assay (SEAP reporter, ODN2006 stimulation); format: cell-based; settings: HEK293-Blue-hTLR9 cells, ODN2006 ligand, 20 hrs; read-out: HEK/hTLR9 IC50
T1 sequence (Q9NR96 26-1032): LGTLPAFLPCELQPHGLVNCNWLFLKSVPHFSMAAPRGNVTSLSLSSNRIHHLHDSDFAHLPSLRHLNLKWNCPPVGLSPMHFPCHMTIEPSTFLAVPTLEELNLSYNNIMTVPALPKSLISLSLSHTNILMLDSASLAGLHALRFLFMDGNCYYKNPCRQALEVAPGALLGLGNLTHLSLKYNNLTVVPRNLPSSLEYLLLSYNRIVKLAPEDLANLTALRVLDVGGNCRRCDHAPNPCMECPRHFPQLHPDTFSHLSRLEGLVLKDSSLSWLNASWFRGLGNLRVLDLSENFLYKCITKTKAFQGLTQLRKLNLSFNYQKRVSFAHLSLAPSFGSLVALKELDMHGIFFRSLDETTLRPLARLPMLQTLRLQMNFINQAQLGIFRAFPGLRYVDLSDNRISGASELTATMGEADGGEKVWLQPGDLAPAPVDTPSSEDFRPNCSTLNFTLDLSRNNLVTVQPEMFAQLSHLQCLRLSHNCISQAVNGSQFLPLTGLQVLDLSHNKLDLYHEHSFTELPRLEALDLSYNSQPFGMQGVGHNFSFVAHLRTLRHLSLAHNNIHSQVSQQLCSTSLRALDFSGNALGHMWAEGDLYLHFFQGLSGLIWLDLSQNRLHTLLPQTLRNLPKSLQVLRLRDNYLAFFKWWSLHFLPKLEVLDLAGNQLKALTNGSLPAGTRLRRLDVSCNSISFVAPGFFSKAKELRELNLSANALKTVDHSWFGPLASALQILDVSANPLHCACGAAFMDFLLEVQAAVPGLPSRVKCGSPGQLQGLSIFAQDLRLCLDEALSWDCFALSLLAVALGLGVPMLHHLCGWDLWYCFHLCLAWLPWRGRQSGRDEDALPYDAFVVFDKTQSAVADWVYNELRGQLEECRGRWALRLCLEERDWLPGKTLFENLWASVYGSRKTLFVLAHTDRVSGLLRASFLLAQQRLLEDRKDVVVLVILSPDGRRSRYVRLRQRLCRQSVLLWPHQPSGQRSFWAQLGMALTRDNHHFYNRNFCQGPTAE
Description: The following tests were carried out in order to determine the activity of the compounds of formula (I), (Ia) or (Ib) in HEK293-Blue-hTLR-7/8/9 cells assay.
HEK293-Blue-hTLR-9 Cells Assay:
A stable HEK293-Blue-hTLR-9 cell line was purchased from InvivoGen (Cat. #: hkb-htlr9, San Diego, California, USA). These cells were originally designed for studying the stimulation of human TLR9 by monitoring the activation of NF-κB. A SEAP (secreted embryonic alkaline phosphatase) reporter gene was placed under the control of the IFN-β minimal promoter fused to five NF-κB and AP-1-binding sites. The SEAP was induced by activating NF-κB and AP-1 via stimulating HEK-Blue hTLR9 cells with TLR9 ligands. Therefore the reporter expression was declined by TLR9 antagonist under the stimulation of a ligand, such as ODN2006 (Cat. #: tlrl-2006-1, Invivogen, San Diego, California, USA), for incubation of 20 hrs. The cell culture supernatant SEAP reporter activity was determined using QUANTI-Blue™ kit (Cat. #: rep-qb1, Invivogen, San Diego, California, USA) at a wavelength of 640 nm, a detection medium that turns purple or blue in the presence of alkaline phosphatase.
HEK293-Blue-hTLR9 cells were incubated at a density of 250,000˜450,000 cells/mL in a volume of 170 μL in a 96-well plate in Dulbecco's Modified Eagle's medium (DMEM) containing 4.5 g/L glucose, 50 U/mL penicillin, […], 2 mM L-glutamine, 10% (v/v) heat-inactivated fetal bovine serum with addition of 20 μL test compound in a serial dilution in the presence of final DMSO at 1% and 10 μL of 20 uM ODN2006 in above DMEM, perform incubation under 37° C. in a CO2 incubator for 20 hrs. Then 20 μL of the supernatant from each well was incubated with 180 μL Quanti-blue substrate solution at 37° C. for 2 h and the absorbance was read at 620-655 nm using a spectrophotometer. The signaling pathway that TLR9 activation leads to downstream NF-κB activation has been widely accepted, and therefore similar reporter assay was modified for evaluating TLR9 antagonist.

| SMILES | IC50 |
| --- | --- |
| C[C@@H]1CN(c2ccc(C#N)c3ncccc23)C[C@@H]2CCN(Cc3cncc(N4CCNCC4)c3)CCN21 [Example 16, 5-[(4R,10aS)-4-methyl-8-[(5-piperazin-1-yl-3-pyridyl)methyl]-1,3,4,6,7,9,10,10a-octahydropyrazino[1,2-d][1,4]diazepin-2-yl]quinoline-8-carbonitrile] | 0.0354 µM |
| C[C@@H]1CN(c2ccc(C#N)c3ncccc23)C[C@@H]2CCN(c3cncc4c3CCNC4)CCN21 [Example 4, 5-[(4R,10aS)-4-methyl-8-(5,6,7,8-tetrahydro-2,7-naphthyridin-4-yl)-1,3,4,6,7,9,10,10a-octahydropyrazino[1,2-d][1,4]diazepin-2-yl]quinoline-8-carbonitrile] | < 0.0318 µM |
| CO[C@@H]1CN(c2cnc(CN3CC[C@H]4CN(c5ccc(C#N)n6nccc56)C[C@@H](C)N4CC3)c(F)c2)C[C@H]1N [Example 26, 4-[(4R,10aS)-8-[[5-[(3R,4R)-3-amino-4-methoxy-pyrrolidin-1-yl]-3-fluoro-2-pyridyl]methyl]-4-methyl-1,3,4,6,7,9,10,10a-octahydropyrazino[1,2-d][1,4]diazepin-2-yl]pyrazolo[1,5-a]pyridine-7-carbonitrile] | 0.0874 µM |
| C[C@@H]1CN(c2ccc(C#N)c3ncccc23)C[C@@H]2CCN(Cc3ccc4c(c3)CCNC4)CCN21 [Example 11, 5-[(4R,10aS)-4-methyl-8-(1,2,3,4-tetrahydroisoquinolin-6-ylmethyl)-1,3,4,6,7,9,10,10a-octahydropyrazino[1,2-d][1,4]diazepin-2-yl]quinoline-8-carbonitrile] | 0.0487 µM |
| C[C@@H]1CN(c2ccc(C#N)c3ncccc23)C[C@@H]2CCN(Cc3ccc4c(c3)CNCC4)CCN21 [Example 12, 5-[(4R,10aS)-4-methyl-8-(1,2,3,4-tetrahydroisoquinolin-7-ylmethyl)-1,3,4,6,7,9,10,10a-octahydropyrazino[1,2-d][1,4]diazepin-2-yl]quinoline-8-carbonitrile] | 0.0438 µM |
| C[C@@H]1CN(c2ccc(C#N)c3ncccc23)C[C@@H]2CCN(Cc3ncc(N4CCNCC4)cc3F)CCN21 [Example 23, 5-[(4R,10aS)-8-[(3-fluoro-5-piperazin-1-yl-2-pyridyl)methyl]-4-methyl-1,3,4,6,7,9,10,10a-octahydropyrazino[1,2-d][1,4]diazepin-2-yl]quinoline-8-carbonitrile] | 0.0391 µM |
| CO[C@@H]1CN(c2ccc(CN3CC[C@H]4CN(c5ccc(C#N)c6ncccc56)C[C@@H](C)N4CC3)nc2)C[C@H]1N [Example 22, 5-[(4R,10aS)-8-[[5-[(3R,4R)-3-amino-4-methoxy-pyrrolidin-1-yl]-2-pyridyl]methyl]-4-methyl-1,3,4,6,7,9,10,10a-octahydropyrazino[1,2-d][1,4]diazepin-2-yl]quinoline-8-carbonitrile] | 0.0628 µM |
| C[C@@H]1CN(c2ccc(C#N)c3ncccc23)C[C@@H]2CCN(Cc3cccc(N4CCNCC4)n3)CCN21 [Example 18, 5-[(4R,10aS)-4-methyl-8-[(6-piperazin-1-yl-2-pyridyl)methyl]-1,3,4,6,7,9,10,10a-octahydropyrazino[1,2-d][1,4]diazepin-2-yl]quinoline-8-carbonitrile] | < 0.0318 µM |
| C[C@@H]1CN(c2ccc(C#N)c3ncccc23)C[C@@H]2CCN(c3ccc([C@H]4CNCCO4)cc3)CCN21 [Example 3, 5-[(4R,10aS)-4-methyl-8-[4-[(2S)-morpholin-2-yl]phenyl]-1,3,4,6,7,9,10,10a-octahydropyrazino[1,2-d][1,4]diazepin-2-yl]quinoline-8-carbonitrile] | 0.052 µM |
